Measured values published in PubChem BioAssay AID248 (DTP/NCI, 2004).
“And” between values parts separate entries of the source, which are not always exact repeats. Equal values may be shown once. Inconclusive results and toxic doses are left out. Cut-off read from the data, not from the text of the source: active = T/C of 150% or more; inactive = T/C below 125%.

Tested on: L1210 leukemia ip in BDF1 mice, survival T/C
Assay: NCI In Vivo Anticancer Drug Screen. Data for tumor model L1210 Leukemia (intraperitoneal) in B6D2F1 (BDF1) mice
Conditions: endpoint: mean survival time, higher = longer survival
How it was run: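 Each compound was tested against a transplantable tumor grown in mice. The endpoint was survival, with treated animals benchmarked against vehicle controls as a simple ratio.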

[1] = dose: 100.0 mg/kg/injection, schedule: Q04DX002 (ip), vehicle: Klucel (hydroxypropylcellulose) (HPC)
[2] = dose: 200.0 mg/kg/injection, schedule: Q04DX002 (ip), vehicle: Klucel (hydroxypropylcellulose) (HPC)
[3] = dose: 400.0 mg/kg/injection, schedule: Q04DX002 (ip), vehicle: Klucel (hydroxypropylcellulose) (HPC)
[4] = dose: 100.0 mg/kg/injection, schedule: Q01DX001 (ip), vehicle: carboxymethylcellulose (CMC)
[5] = dose: 200.0 mg/kg/injection, schedule: Q01DX001 (ip), vehicle: carboxymethylcellulose (CMC)
[6] = dose: 400.0 mg/kg/injection, schedule: Q01DX001 (ip), vehicle: carboxymethylcellulose (CMC)
[7] = dose: 100.0 mg/kg/injection, schedule: Q04DX002 (ip), vehicle: saline with Tween-80
[8] = dose: 200.0 mg/kg/injection, schedule: Q04DX002 (ip), vehicle: saline with Tween-80
[9] = dose: 400.0 mg/kg/injection, schedule: Q04DX002 (ip), vehicle: saline with Tween-80
[10] = dose: 100.0 mg/kg/injection, schedule: Q01DX001 (ip), vehicle: saline
[11] = dose: 200.0 mg/kg/injection, schedule: Q01DX001 (ip), vehicle: saline
[12] = dose: 400.0 mg/kg/injection, schedule: Q01DX001 (ip), vehicle: saline
[13] = dose: 100.0 mg/kg/injection, schedule: Q04DX003 (ip), vehicle: saline with Tween-80
[14] = dose: 200.0 mg/kg/injection, schedule: Q04DX003 (ip), vehicle: saline with Tween-80
[15] = dose: 400.0 mg/kg/injection, schedule: Q04DX003 (ip), vehicle: saline with Tween-80
[16] = dose: 25.0 mg/kg/injection, schedule: Q01DX009 (ip), vehicle: Klucel (hydroxypropylcellulose) (HPC)
[17] = dose: 25.0 mg/kg/injection, schedule: Q04DX003 (ip), vehicle: Klucel (hydroxypropylcellulose) (HPC)
[18] = dose: 100.0 mg/kg/injection, schedule: Q01DX009 (ip), vehicle: Klucel (hydroxypropylcellulose) (HPC)
[19] = dose: 200.0 mg/kg/injection, schedule: Q01DX009 (ip), vehicle: Klucel (hydroxypropylcellulose) (HPC)
[20] = dose: 120.0 mg/kg/injection, schedule: Q01DX Z (oral), vehicle: saline
[21] = dose: 240.0 mg/kg/injection, schedule: Q01DX Z (oral), vehicle: saline

Measured: T/C

Cc1cccc(C)c1OC(=O)Nc1cccc2ccccc12
inactive: dose: 12.5 mg/kg/injection, schedule: Q04DX002 (ip), vehicle: Klucel (hydroxypropylcellulose) (HPC) 105 % of control | dose: 25.0 mg/kg/injection, schedule: Q04DX002 (ip), vehicle: Klucel (hydroxypropylcellulose) (HPC) 118 % of control | dose: 50.0 mg/kg/injection, schedule: Q04DX002 (ip), vehicle: Klucel (hydroxypropylcellulose) (HPC) 112 % of control | [1] 95 % of control | [2] 97 % of control | [3] 89 % of control

Nn1cnnc1N/N=C/c1ccccc1Cl
inactive: dose: 50.0 mg/kg/injection, schedule: Q01DX001 (ip), vehicle: carboxymethylcellulose (CMC) 94 % of control | [4] 96 % of control | [5] 94 % of control | [6] 90 % of control

c1ccc(C2C(c3ccccc3)C(c3ccccc3)C2c2ccccc2)cc1 (stereo not drawn)
inactive: dose: 75.0 mg/kg/injection, schedule: Q01DX001 (ip), vehicle: carboxymethylcellulose (CMC) 91 % of control | dose: 150.0 mg/kg/injection, schedule: Q01DX001 (ip), vehicle: carboxymethylcellulose (CMC) 94 % of control | dose: 300.0 mg/kg/injection, schedule: Q01DX001 (ip), vehicle: carboxymethylcellulose (CMC) 88 % of control

CCCCCCCN(CCCCCCC)C(=O)N(CC)CC
inactive: [7] 93 % of control | [8] 93 % of control | [9] 97 % of control

Cc1ccc(N=C2CCCCC2Nc2ccc(C)cc2)cc1.[Cl][Zn][Cl] (stereo not drawn)
inactive: [10] 98 % of control | [11] 101 % of control | [12] 104 % of control

CC(c1c[nH]c2ccccc12)C(N)C(=O)O (stereo not drawn)
inactive: dose: 100.0 mg/kg/injection, schedule: Q04DX003 (ip), vehicle: saline 95 % of control and 93 % of control | dose: 200.0 mg/kg/injection, schedule: Q04DX003 (ip), vehicle: saline 98 % of control and 92 % of control | dose: 400.0 mg/kg/injection, schedule: Q04DX003 (ip), vehicle: saline 95 % of control and 97 % of control

CCCCCCCC(=O)Nc1c(C)cc(C)cc1C
inactive: [13] 95 % of control | [14] 92 % of control | [15] 93 % of control

C/C(CN(C)C)=N\O
inactive: dose: 100.0 mg/kg/injection, schedule: Q04DX002 (ip), vehicle: saline 101 % of control | dose: 200.0 mg/kg/injection, schedule: Q04DX002 (ip), vehicle: saline 99 % of control | dose: 400.0 mg/kg/injection, schedule: Q04DX002 (ip), vehicle: saline 92 % of control

O=C1C=CC(=O)C(c2ccccc2)=C1
inactive: dose: 6.0 mg/kg/injection, schedule: Q04DX003 (ip), vehicle: Klucel (hydroxypropylcellulose) (HPC) 95 % of control | dose: 12.0 mg/kg/injection, schedule: Q01DX001 (ip), vehicle: saline 104 % of control | dose: 12.0 mg/kg/injection, schedule: Q01DX009 (ip), vehicle: Klucel (hydroxypropylcellulose) (HPC) 90 % of control | dose: 12.0 mg/kg/injection, schedule: Q04DX003 (ip), vehicle: Klucel (hydroxypropylcellulose) (HPC) 98 % of control | dose: 25.0 mg/kg/injection, schedule: Q01DX001 (ip), vehicle: saline 100 % of control | [16] 100 % of control | [17] 98 % of control | dose: 50.0 mg/kg/injection, schedule: Q01DX009 (ip), vehicle: Klucel (hydroxypropylcellulose) (HPC) 100 % of control

CCOP(=S)(OCC)SCc1ccc(C)cc1
inactive: [13] 98 % of control | [14] 103 % of control | [15] 110 % of control

C(=N\n1cnnc1)/c1ccc2c(c1)CCC2
inactive: [13] 94 % of control | [14] 112 % of control | [15] 98 % of control

O=C1c2ccccc2C(=O)N1OC1CCCCO1 (stereo not drawn)
inactive: [18] 104 % of control | [19] 110 % of control | dose: 400.0 mg/kg/injection, schedule: Q01DX009 (ip), vehicle: Klucel (hydroxypropylcellulose) (HPC) 97 % of control

CC(=O)NC12CC3CC(CC(C)(C3)C1)C2
inactive: dose: 100.0 mg/kg/injection, schedule: Q01DX001 (ip), vehicle: Klucel (hydroxypropylcellulose) (HPC) 103 % of control | dose: 200.0 mg/kg/injection, schedule: Q01DX001 (ip), vehicle: Klucel (hydroxypropylcellulose) (HPC) 106 % of control

O=C(NCCCl)C(=O)NCCCl
inactive: [1] 104 % of control | [2] 107 % of control | [3] 93 % of control

CCC1(CC)CC1(Cl)Cl
inactive: dose: 75.0 mg/kg/injection, schedule: Q01DX001 (ip), vehicle: acetone 108 % of control | dose: 150.0 mg/kg/injection, schedule: Q01DX001 (ip), vehicle: acetone 101 % of control

CC(C)(C)Sc1nc2ccccc2s1
inactive: dose: 25.0 mg/kg/injection, schedule: Q04DX002 (ip), vehicle: saline with Tween-80 93 % of control | dose: 50.0 mg/kg/injection, schedule: Q04DX002 (ip), vehicle: saline with Tween-80 93 % of control | [7] 96 % of control | [8] 105 % of control and 119 % of control | [9] 107 % of control

NC(N)=N/N=C(/c1ccccc1)c1ccc(Cl)cc1
inactive: dose: 15.0 mg/kg/injection, schedule: Q01DX Z (ip), vehicle: saline 90 % of control | dose: 30.0 mg/kg/injection, schedule: Q01DX Z (ip), vehicle: saline 92 % of control | dose: 60.0 mg/kg/injection, schedule: Q01DX Z (ip), vehicle: saline 97 % of control | dose: 60.0 mg/kg/injection, schedule: Q01DX Z (oral), vehicle: saline 95 % of control | dose: 120.0 mg/kg/injection, schedule: Q01DX Z (ip), vehicle: saline 110 % of control | [20] 92 % of control | dose: 240.0 mg/kg/injection, schedule: Q01DX Z (ip), vehicle: saline 108 % of control | [21] 107 % of control | dose: 480.0 mg/kg/injection, schedule: Q01DX010 (oral), vehicle: saline 96 % of control | dose: 960.0 mg/kg/injection, schedule: Q01DX010 (oral), vehicle: saline 91 % of control

Cc1cc(Cl)cc(CN(C)Cc2c(C)[nH]c(=O)[nH]c2=O)c1O
inactive: [4] 97 % of control | [5] 94 % of control | [6] 97 % of control

CCOC(=O)/C=C/C(=O)N(C)c1ccccc1
inactive: dose: 100.0 mg/kg/injection, schedule: Q01DX001 (ip), vehicle: other 100 % of control | dose: 200.0 mg/kg/injection, schedule: Q01DX001 (ip), vehicle: other 100 % of control | dose: 400.0 mg/kg/injection, schedule: Q01DX001 (ip), vehicle: other 108 % of control

Cc1ccc(NC(=O)Nc2cc(C)on2)c([N+](=O)[O-])c1
inactive: [17] 96 % of control | dose: 50.0 mg/kg/injection, schedule: Q04DX003 (ip), vehicle: Klucel (hydroxypropylcellulose) (HPC) 96 % of control | dose: 100.0 mg/kg/injection, schedule: Q04DX003 (ip), vehicle: Klucel (hydroxypropylcellulose) (HPC) 100 % of control and 91 % of control

COc1cc(C(=O)Cl)cc(OC)c1OC(C)=O
inactive: [10] 93 % of control | [11] 89 % of control | [12] 91 % of control

O=[N+]([O-])c1cccc(NCn2c(=S)[nH]c3ccccc32)c1
inactive: [18] 102 % of control | [19] 106 % of control

CC(C)c1ccc(N2C(=O)C=CC2=O)cc1
inactive: dose: 12.5 mg/kg/injection, schedule: Q01DX009 (ip), vehicle: Klucel (hydroxypropylcellulose) (HPC) 100 % of control | [16] 91 % of control

NC(N)=N/N=C/C(N)(/C=N/N=C(N)N)/C=N/N=C(N)N
inactive: [20] 106 % of control | [21] 114 % of control | dose: 480.0 mg/kg/injection, schedule: Q01DX Z (oral), vehicle: saline 113 % of control | dose: 960.0 mg/kg/injection, schedule: Q01DX Z (oral), vehicle: saline 106 % of control

O=C(O)CCCCCCCCCCCCCCC(=O)O
inactive: [1] 93 % of control and 97 % of control | [2] 101 % of control | [3] 93 % of control and 101 % of control

N#CCCn1ccc2ccccc21
inactive: dose: 100.0 mg/kg/injection, schedule: Q04DX003 (ip), vehicle: other 96 % of control | dose: 200.0 mg/kg/injection, schedule: Q04DX003 (ip), vehicle: other 104 % of control | dose: 400.0 mg/kg/injection, schedule: Q04DX003 (ip), vehicle: other 106 % of control
